Experimental data published in patent US20120028930A1, “FLUPIRTINE SALTS AND POLYMORPHS” (Bionevia Pharmaceuticals Inc., priority 2010, published 2012).
Counter-ions that a name gives are not always drawn.

Key:
[1] = stability towards oxidation and discoloration on storage exposed to air; conditions: storage period of 30 days at room temperature, in contrast to other acid addition salts, e.g. maleate and gluconate
Source text: HPLC can be performed after preparation of the salts and repeated after 14 days of storage at room temperature under normal air containing about 21% oxygen.
HPLC analysis can be performed after isolation and drying of flupirtine sulfonate salts and repeated after 14 days of storage at room temperature under open air.
Discolouration can be measured using optical comparison with a standard: the RAL scale of colours (see list). The colour changes during the experiment is compared to this standard list and the appropriate value is noted. The intensity is increasing on a scale ranging from 1 to 10. A higher number means more discolouration. The increase in colour intensity is not proportional but qualitative.

dissolution rate = format: physicochemical
[2] = cited from earlier work

Structure (SMILES): CC(=O)O.CCOC(=O)Nc1ccc(NCc2ccc(F)cc2)nc1N [flupirtine acetate, 2-amino-3-carbethoxyamino-6-(4-fluoro-benzylamino)-pyridine acetate]
- stability towards oxidation and towards discoloration [1]: substantially improved stability

Structure (SMILES): CCOC(=O)Nc1ccc(NCc2ccc(F)cc2)nc1N [flupirtine maleate]
- dissolution rate (dissolution rate): 0.088 [μg/mL]/min
- solubility in water [2]: insoluble

Structure (SMILES): CCOC(=O)Nc1ccc(NCc2ccc(F)cc2)nc1N.CS(=O)(=O)O [flupirtine mesylate, 2-amino-3-carbethoxyamino-6-(4-fluoro-benzylamino)-pyridine mesylate]
- stability towards oxidation and towards discoloration [1]: substantially improved stability

Structure (SMILES): CCC(=O)O.CCOC(=O)Nc1ccc(NCc2ccc(F)cc2)nc1N [flupirtine propionate, 2-amino-3-carbethoxyamino-6-(4-fluoro-benzylamino)-pyridine propionate]
- stability towards oxidation and towards discoloration [1]: substantially improved stability
